Measured values as given in patent US20250034159A1, “INHIBITORS OF EPIDERMAL GROWTH FACTOR RECEPTOR” (ORIC Pharmaceuticals, Inc., priority 2021, published 2025).
Where two headings read alike, the source gives them in different places.

How the values were obtained:
[1] = biological target: recombinant human EGFR L858R/C797S double mutant protein (Homo sapiens (Human), UniProt P00533, C797S/L858R); experiment: Biological Activity Assay B: biochemical assay against EGFR L858R/C797S protein (EGFR LR/CS)
Description: In Row A of a 384-well polypropylene plate, was added 48 μL of DMSO. In wells A1 and A24, were added 12 μL of DMSO. […] To a well in Row A were added 12 μL of each 10 mM test compound stock (100% DMSO). […] The final intermediate dilution plate contained 4×16-point compound serial dilutions in assay buffer. The DMSO concentration was 10%. The intermediate compound dilution plate was transferred to the Bravo and the “5 uL dispense into ARP.pro” protocol was run. To the black low volume assay ready plates, were added 5 μL of 40 uM Phosphosens peptide sensor/4 mM ATP working solution to each well. […] To column 24, was added 10 μL of assay buffer. The final DMSO concentration was 2.5%. […] The plates were sealed with the TopSeal-A Plus plate seals. […] Set for 90 cycles with 120 second interval. […] The slope of each curve was constructed using Dotmatics in each well, and each IC50s was calculated using a 4-parameter fit model.

[2] = biological target: recombinant human EGFR exon 19 deletion/C797S double mutant protein (Homo sapiens (Human), UniProt P00533, C797S/DEL746-750); experiment: Biological Activity Assay C: biochemical assay against EGFR exon 19 deletion/C797S protein (EGFR d19/CS)
In short: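 Compounds were tested as 16-point serial dilutions (final DMSO 2.5%) with a Phosphosens peptide sensor/ATP working solution (40 uM/4 mM). The signal was read kinetically over 90 cycles at 120 s intervals. IC50s came from 4-parameter fits of per-well slopes.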

BaF3_EGFR LR/CS cells = experiment: Biological Activity Assay D: BaF3 cell proliferation assay, EGFR L858R/C797S mutant (BaF3 LR/CS); assay type: cell-based; conditions: Ba/F3 EGFR, read-out: BaF3 LR/CS IC50
Ba/F3_EGFR WT cells = experiment: Biological Activity Assay D: BaF3 cell proliferation assay, EGFR wild-type (BaF3 WT); assay type: cell-based; conditions: Ba/F3 EGFR, read-out: BaF3 WT IC50
BaF3_EGFR d19/CS cells = experiment: Biological Activity Assay D: BaF3 cell proliferation assay, EGFR exon 19 deletion/C797S (BaF3 d19/CS); assay type: cell-based; conditions: Ba/F3 EGFR, read-out: BaF3 d19/CS IC50
[3] = BaF3_EGFR LR/CS cells, ~72 hours, CellTiter-Glo
[4] = Ba/F3_EGFR WT cells, ~72 hours, CellTiter-Glo
[5] = BaF3_EGFR d19/CS cells, ~72 hours, CellTiter-Glo

recombinant human EGFR L858R/C797S double mutant protein, sequence (P00533 25-1210 C797S/L858R): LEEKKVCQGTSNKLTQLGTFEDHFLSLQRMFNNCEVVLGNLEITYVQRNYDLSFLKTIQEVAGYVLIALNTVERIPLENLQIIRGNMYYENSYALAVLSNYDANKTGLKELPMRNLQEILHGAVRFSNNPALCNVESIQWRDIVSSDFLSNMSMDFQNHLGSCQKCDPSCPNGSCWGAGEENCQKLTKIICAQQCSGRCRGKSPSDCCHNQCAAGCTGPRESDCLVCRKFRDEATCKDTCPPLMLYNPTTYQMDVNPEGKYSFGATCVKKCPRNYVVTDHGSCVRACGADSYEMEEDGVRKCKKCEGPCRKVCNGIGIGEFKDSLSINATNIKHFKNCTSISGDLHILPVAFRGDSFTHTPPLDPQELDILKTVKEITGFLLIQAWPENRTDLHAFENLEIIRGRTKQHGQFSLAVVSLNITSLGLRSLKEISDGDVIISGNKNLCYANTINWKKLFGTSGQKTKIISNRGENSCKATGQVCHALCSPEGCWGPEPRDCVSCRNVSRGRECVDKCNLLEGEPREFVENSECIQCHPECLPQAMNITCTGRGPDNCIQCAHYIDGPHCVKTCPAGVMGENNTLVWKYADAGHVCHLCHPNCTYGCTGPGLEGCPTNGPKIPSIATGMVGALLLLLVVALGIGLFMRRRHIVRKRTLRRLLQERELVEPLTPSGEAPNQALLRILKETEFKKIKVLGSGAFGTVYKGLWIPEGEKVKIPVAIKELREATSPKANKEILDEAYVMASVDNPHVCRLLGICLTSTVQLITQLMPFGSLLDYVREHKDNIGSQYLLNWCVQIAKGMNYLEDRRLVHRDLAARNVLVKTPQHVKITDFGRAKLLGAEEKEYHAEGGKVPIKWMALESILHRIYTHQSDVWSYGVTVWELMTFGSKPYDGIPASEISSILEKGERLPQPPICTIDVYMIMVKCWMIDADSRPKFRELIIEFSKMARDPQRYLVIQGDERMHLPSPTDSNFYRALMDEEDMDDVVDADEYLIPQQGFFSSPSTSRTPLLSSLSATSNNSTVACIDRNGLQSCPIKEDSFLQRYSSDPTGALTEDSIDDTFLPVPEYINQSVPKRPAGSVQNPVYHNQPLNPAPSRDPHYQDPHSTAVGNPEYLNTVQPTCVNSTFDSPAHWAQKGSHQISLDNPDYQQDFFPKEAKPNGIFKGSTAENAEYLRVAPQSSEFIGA
recombinant human EGFR exon 19 deletion/C797S double mutant protein, sequence (P00533 other isoform, or with tags, fused parts or gaps C797S/del 1-668/del 746-750 limits assumed): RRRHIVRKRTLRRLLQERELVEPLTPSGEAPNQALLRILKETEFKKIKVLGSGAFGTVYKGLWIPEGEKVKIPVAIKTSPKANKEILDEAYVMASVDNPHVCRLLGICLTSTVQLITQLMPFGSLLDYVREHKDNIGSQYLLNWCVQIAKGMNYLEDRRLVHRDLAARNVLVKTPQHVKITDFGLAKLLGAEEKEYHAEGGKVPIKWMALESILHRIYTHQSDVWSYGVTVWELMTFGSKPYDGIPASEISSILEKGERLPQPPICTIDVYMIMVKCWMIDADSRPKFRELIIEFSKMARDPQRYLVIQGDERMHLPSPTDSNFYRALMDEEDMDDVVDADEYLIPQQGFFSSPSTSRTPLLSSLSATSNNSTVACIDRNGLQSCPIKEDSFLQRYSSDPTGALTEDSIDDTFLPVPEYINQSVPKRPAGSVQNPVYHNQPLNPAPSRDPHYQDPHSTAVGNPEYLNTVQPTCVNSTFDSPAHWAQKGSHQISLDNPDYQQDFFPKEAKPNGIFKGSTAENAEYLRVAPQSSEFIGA

Compound | IC50 [1] | IC50 [2] | IC50 (BaF3_EGFR LR/CS cells; [3]) | IC50 (Ba/F3_EGFR WT cells; [4]) | IC50 (BaF3_EGFR d19/CS cells; [5]) | IC50 (BaF3_EGFR LR/CS cells; 72 h) | IC50 (Ba/F3_EGFR WT cells; 72 h) | IC50 (BaF3_EGFR d19/CS cells; 72 h)
COC1(Cn2cc(-c3ncnc4oc(-c5ccccc5)cc34)c(-c3ccc(F)cc3)n2)COC1 [Example 75, 4-{3-(4-fluorophenyl)-1-[(3-methoxyoxetan-3-yl)methyl]-1H-pyrazol-4-yl}-6-phenylfuro[2,3-d]pyrimidine] | 1.01 nM | 1.49 nM | 131 nM | 5920 nM | 150 nM | – | – | –
O=S1(=O)CC(CCn2cc(-c3ncnc4oc(-c5ccccc5)cc34)c(-c3ccc(F)cc3)n2)C1 [Example 52, 3-{2-[3-(4-Fluorophenyl)-4-(6-phenylfuro[2,3-d]pyrimidin-4-yl)-1H-pyrazol-1-yl]ethyl}-1λ6-thietane-1,1-dione] | 0.307 nM | 0.368 nM | 106 nM | 1940 nM | 20.8 nM | – | – | –
O[C@H]1C[C@H](Cn2ncc(-c3ncnc4oc(-c5ccccc5)cc34)c2-c2ccc(F)cc2)C1 [Example 54, (1r,3r)-3-{[5-(4-fluorophenyl)-4-(6-phenylfuro[2,3-d]pyrimidin-4-yl)-1H-pyrazol-1-yl]methyl}cyclobutan-1-ol] | 15.8 nM | 20.1 nM | 992 nM | 8860 nM | 837 nM | – | – | –
CC(C)(C(N)=O)n1cc(-c2ncnc3oc(-c4ccccc4)cc23)c(-c2ccc(F)cc2)n1 [Example 77, 2-[3-(4-Fluorophenyl)-4-(6-phenylfuro[2,3-d]pyrimidin-4-yl)-1H-pyrazol-1-yl]-2-methylpropanamide] | 1.36 nM | 1.61 nM | 139 nM | 5180 nM | 72.2 nM | – | – | –
Fc1ccc(-c2nn(CCC3COC3)cc2-c2ncnc3oc(-c4ccccc4)cc23)cc1 [Example 64, 4-{3-(4-Fluorophenyl)-1-[2-(oxetan-3-yl)ethyl]-1H-pyrazol-4-yl}-6-phenylfuro[2,3-d]pyrimidine] | 0.779 nM | 1.1 nM | 99.1 nM | 1460 nM | 62.9 nM | – | – | –
CC(O)Cn1cc(-c2ncnc3oc(-c4ccccc4)cc23)c(-c2ccc(F)cc2)n1 (centres unmarked) [Example 58, 1-[3-(4-Fluorophenyl)-4-(6-phenylfuro[2,3-d]pyrimidin-4-yl)-1H-pyrazol-1-yl]propan-2-ol] | 0.349 nM | 0.177 nM | – | – | – | 58.2 nM | 2100 nM | 43.7 nM
CN1CCN(c2ccc(-c3cc4c(-c5cn(CCCO)nc5-c5ccc(F)cc5)ncnc4o3)cc2)CC1 [Example 33, 3-[3-(4-Fluorophenyl)-4-{6-[4-(4-methylpiperazin-1-yl)phenyl]furo[2,3-d]pyrimidin-4-yl}-1H-pyrazol-1-yl]propan-1-ol] | 0.212 nM | 0.119 nM | 1.16 nM | 38 nM | 1.08 nM | – | – | –
CC(C)(O)Cn1cc(-c2ncnc3oc(-c4ccccc4)cc23)c(-c2ccc(F)cc2)n1 [Example 46, 1-[3-(4-Fluorophenyl)-4-(6-phenylfuro[2,3-d]pyrimidin-4-yl)-1H-pyrazol-1-yl]-2-methylpropan-2-ol] | 0.389 nM | 0.317 nM | 41.1 nM | 2160 nM | 21.1 nM | – | – | –
CS(=O)(=O)CCn1cc(-c2ncnc3oc(-c4ccccc4)cc23)c(-c2ccc(F)cc2)n1 [Example 38, 4-{3-(4-Fluorophenyl)-1-[2-(methanesulfonyl)ethyl]-1H-pyrazol-4-yl}-6-phenylfuro[2,3-d]pyrimidine] | 0.434 nM | 0.856 nM | 121 nM | 2170 nM | 44.8 nM | – | – | –
CN1CCN(c2ccc(-c3nc4c(-c5cn(CCCO)nc5-c5ccc(F)cc5)ncnc4[nH]3)cc2)CC1 [Example 15, 3-[3-(4-Fluorophenyl)-4-{8-[4-(4-methylpiperazin-1-yl)phenyl]-9H-purin-6-yl}-1H-pyrazol-1-yl]propan-1-ol] | 0.27 nM | 0.207 nM | 1.02 nM | 64.7 nM | 0.949 nM | – | – | –
OCCCc1nc(-c2ccc(F)cc2)n(-c2ccnc3[nH]c(-c4ccccc4)cc23)n1 [Example 3, 3-[5-(4-Fluorophenyl)-1-(2-phenyl-1H-pyrrolo[2,3-b]pyridin-4-yl)-1H-1,2,4-triazol-3-yl]propan-1-ol] | 3.15 nM | 1.66 nM | 130 nM | 808 nM | 169 nM | – | – | –

The next lines start with results.

IC50 [1] | IC50 [2] | IC50 (BaF3_EGFR LR/CS cells; [3]) | IC50 (Ba/F3_EGFR WT cells; [4]) | IC50 (BaF3_EGFR d19/CS cells; [5]) | Compound | IC50 (BaF3_EGFR LR/CS cells; 72 h) | IC50 (Ba/F3_EGFR WT cells; 72 h) | IC50 (BaF3_EGFR d19/CS cells; 72 h)
0.263 nM | 0.341 nM | 24.3 nM | 589 nM | 19.9 nM | NS(=O)(=O)CCCn1cc(-c2ncnc3oc(-c4ccccc4)cc23)c(-c2ccc(F)cc2)n1 [Example 65, 3-[3-(4-Fluorophenyl)-4-(6-phenylfuro[2,3-d]pyrimidin-4-yl)-1H-pyrazol-1-yl]propane-1-sulfonamide] | – | – | –
0.527 nM | 0.703 nM | 45 nM | 1150 nM | 30.1 nM | CC(O)CCn1cc(-c2ncnc3oc(-c4ccccc4)cc23)c(-c2ccc(F)cc2)n1 (centres unmarked) [Example 62, 4-[3-(4-Fluorophenyl)-4-(6-phenylfuro[2,3-d]pyrimidin-4-yl)-1H-pyrazol-1-yl]butan-2-ol] | – | – | –
0.247 nM | 0.29 nM | 78.5 nM | 1280 nM | 21.4 nM | CS(=O)(=O)CCCn1cc(-c2ncnc3oc(-c4ccccc4)cc23)c(-c2ccc(F)cc2)n1 [Example 55, 4-{3-(4-Fluorophenyl)-1-[3-(methanesulfonyl)propyl]-1H-pyrazol-4-yl}-6-phenylfuro[2,3-d]pyrimidine] | – | – | –
0.16 nM | 0.13 nM | 8.35 nM | 229 nM | 17.5 nM | CS(=O)(=O)NCCn1cc(-c2ncnc3oc(-c4ccccc4)cc23)c(-c2ccc(F)cc2)n1 [Example 103, N-{2-[3-(4-Fluorophenyl)-4-(6-phenylfuro[2,3-d]pyrimidin-4-yl)-1H-pyrazol-1-yl]ethyl}methanesulfonamide] | – | – | –
2.76 nM | 1.79 nM | 263 nM | 6650 nM | 421 nM | CC(C)(O)CCc1nc(-c2ccc(F)cc2)c(-c2ncnc3oc(-c4ccccc4)cc23)o1 [Example 44, 4-[4-(4-fluorophenyl)-5-(6-phenylfuro[2,3-d]pyrimidin-4-yl)-1,3-oxazol-2-yl]-2-methylbutan-2-ol] | – | – | –
6.21 nM | 10.8 nM | 566 nM | > 20000 nM | 779 nM | O=S1(=O)CCCC(n2cc(-c3ncnc4oc(-c5ccccc5)cc34)c(-c3ccc(F)cc3)n2)C1 (centres unmarked) [Example 84, 3-[3-(4-fluorophenyl)-4-(6-phenylfuro[2,3-d]pyrimidin-4-yl)-1H-pyrazol-1-yl]-1λ6-thiane-1,1-dione] | – | – | –
0.521 nM | 0.408 nM | 6.91 nM | 594 nM | 5.79 nM | OCCCn1cc(-c2ncnc3oc(-c4ccccc4)cc23)c(-c2ccc(F)cc2)n1 [Example 11, 3-[3-(4-Fluorophenyl)-4-(6-phenylfuro[2,3-d]pyrimidin-4-yl)-1H-pyrazol-1-yl]propan-1-ol] | – | – | –
9.83 nM | 6.94 nM | 610 nM | 3370 nM | 314 nM | Fc1ccc(-c2nn(C(F)F)cc2-c2ncnc3oc(-c4ccccc4)cc23)cc1 [Example 107, 4-[1-(difluoromethyl)-3-(4-fluorophenyl)-1H-pyrazol-4-yl]-6-phenylfuro[2,3-d]pyrimidine] | – | – | –
1.56 nM | 1.34 nM | 140 nM | 2810 nM | 196 nM | CS(=O)(=O)CCn1nc(-c2ccc(F)cc2)c(-c2ncnc3oc(-c4ccccc4)cc23)n1 [Example 87, 4-{5-(4-fluorophenyl)-2-[2-(methanesulfonyl)ethyl]-2H-1,2,3-triazol-4-yl}-6-phenylfuro[2,3-d]pyrimidine] | – | – | –
0.65 nM | 0.36 nM | 26.1 nM | 1340 nM | 24.2 nM | O=S1(=O)CC[C@@H](n2cc(-c3ncnc4oc(-c5ccccc5)cc34)c(-c3ccc(F)cc3)n2)C1 (single isomer, unassigned) [Example 72] | – | – | –
2.58 nM | 1.12 nM | 241 nM | 13500 nM | 330 nM | Fc1ccc(-c2nn(C3COC3)nc2-c2ncnc3oc(-c4ccccc4)cc23)cc1 [Example 81, 4-[5-(4-fluorophenyl)-2-(oxetan-3-yl)-2H-1,2,3-triazol-4-yl]-6-phenylfuro[2,3-d]pyrimidine] | – | – | –
